From PMC8843313, “Highly potent inhibitors of cathepsin K with a differently positioned cyanohydrazide warhead: structural analysis of binding mode to mature and zymogen-like enzymes” (Journal of Enzyme Inhibition and Medicinal Chemistry, 2022)

Assays:
[1] = molecular target: T1, cathepsin K (mature, mCatK) (Homo sapiens, UniProt P43235); assay: crystal structure […] Å (also with iCatK, 7QBO); Ki by slow-binding fluorogenic enzyme assay; assay type: biochemical; conditions: read-out: mCatK inhibition^a / Ki
T1 construct: gene CTSK; mature CatK, model residues Ala1 to Met215 plus N-terminal Gly-Arg (98p–99p) (from recombinant zymogen expressed in Pichia pastoris)
T1 sequence (P43235 113-329): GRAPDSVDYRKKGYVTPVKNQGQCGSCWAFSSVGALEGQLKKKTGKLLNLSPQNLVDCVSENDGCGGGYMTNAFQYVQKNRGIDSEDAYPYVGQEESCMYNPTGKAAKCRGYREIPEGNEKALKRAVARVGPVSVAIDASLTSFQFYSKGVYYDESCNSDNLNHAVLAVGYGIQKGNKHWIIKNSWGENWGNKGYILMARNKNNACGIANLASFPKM

[2] = molecular target: T2, cathepsin K (mature, mCatK) (Homo sapiens, UniProt P43235); assay: crystal structure […] Å (also with iCatK, 7QBM); Ki by fluorogenic enzyme assay (Morrison); assay type: biochemical; conditions: read-out: mCatK inhibition^a / Ki
T2 construct: gene CTSK; mature CatK, model residues Ala1 to Met215 (from recombinant zymogen expressed in Pichia pastoris)
T2 sequence (P43235 115-329): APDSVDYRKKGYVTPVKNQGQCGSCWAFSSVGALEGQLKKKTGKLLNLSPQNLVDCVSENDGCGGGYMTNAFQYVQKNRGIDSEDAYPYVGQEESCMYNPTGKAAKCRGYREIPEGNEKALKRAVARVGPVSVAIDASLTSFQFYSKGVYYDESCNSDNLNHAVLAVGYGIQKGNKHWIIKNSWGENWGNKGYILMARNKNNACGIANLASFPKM

Ki [1] | Ki [2] | Compound
0.91 nM |  | CN(C#N)N(C)C(=O)[C@H](Cc1ccccc1)NC(=O)OCc1ccccc1 [Gü1303]
 | 0.013 nM | CN(Cc1ccccc1)C(=O)CN(C#N)NC(=O)OC(C)(C)C [Gü2602]
